One may read the T/C as the result in the treated group divided by that in the control group, in per cent.

In this assay the test system is Swiss mice, Sarcoma 180 sc, mean tumor weight T/C. The experiment in a line: NCI In Vivo Anticancer Drug Screen. Data for tumor model Sarcoma 180 (subcutaneous) in Swiss mice. To be noted: endpoint: mean tumor weight, higher = larger tumour. The method in brief:
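Transplantable tumors were established in mice, compound was given, then survival or tumor size was recorded. The treated value was divided by the vehicle-control value.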

Where [1] appears, read: dose: 30.0 mg/kg/injection, schedule: Q#A X014 (ip), vehicle: carboxymethylcellulose (CMC).

“And” between values parts separate entries of the source, which are not always exact repeats. Identical values can stand only once.

As for `C[C@@H]1C[C@H]2CC[C@H](O2)[C@H](C)C(=O)O[C@@H](C)C[C@@H]2CC[C@@H](O2)[C@@H](C)C(=O)O[C@H](C)C[C@H]2CC[C@H](O2)[C@H](C)C(=O)O[C@@H](C)C[C@@H]2CC[C@@H](O2)[C@@H](C)C(=O)O1`, the T/C runs as follows: (dose: 1.25 mg/kg/injection, schedule: Q#A X014 (ip), vehicle: olive oil, sesame oil, peanut oil) 96 % of control; (dose: 2.5 mg/kg/injection, schedule: Q#A X014 (ip), vehicle: olive oil, sesame oil, peanut oil) 88 % of control; (dose: 5.0 mg/kg/injection, schedule: Q#A X014 (ip), vehicle: olive oil, sesame oil, peanut oil) 90 % of control; (dose: 5.0 mg/kg/injection, schedule: Q#A X014 (sc), vehicle: olive oil, sesame oil, peanut oil) 82 % of control; (dose: 9.0 mg/kg/injection, schedule: Q#A X014 (ip), vehicle: carboxymethylcellulose (CMC)) 89 % of control; (dose: 10.0 mg/kg/injection, schedule: Q#A X014 (ip), vehicle: olive oil, sesame oil, peanut oil) 73 % of control and 83 % of control. The T/C is 81 % of control (dose: 10.0 mg/kg/injection, schedule: Q#A X014 (sc), vehicle: olive oil, sesame oil, peanut oil); 80 % of control (dose: 15.0 mg/kg/injection, schedule: Q#A X014 (sc), vehicle: olive oil, sesame oil, peanut oil); 111 % of control (dose: 18.0 mg/kg/injection, schedule: Q#A X014 (ip), vehicle: carboxymethylcellulose (CMC)); 57 % of control (dose: 20.0 mg/kg/injection, schedule: Q#A X014 (ip), vehicle: carboxymethylcellulose (CMC)); 53 % of control (dose: 25.0 mg/kg/injection, schedule: Q#A X014 (ip), vehicle: carboxymethylcellulose (CMC)); 77 % of control (dose: 25.0 mg/kg/injection, schedule: Q#A X014 (oral), vehicle: methylcellulose (MC)). Besides, the T/C under setting [1] is 89 % of control; the T/C (dose: 30.0 mg/kg/injection, schedule: Q#A X014 (sc), vehicle: olive oil, sesame oil, peanut oil) was 50 % of control; the T/C (dose: 35.0 mg/kg/injection, schedule: Q#A X014 (ip), vehicle: carboxymethylcellulose (CMC)) is 60 % of control; the T/C (dose: 35.0 mg/kg/injection, schedule: Q#A X014 (sc), vehicle: olive oil, sesame oil, peanut oil) was 26 % of control; the T/C (dose: 40.0 mg/kg/injection, schedule: Q#A X014 (ip), vehicle: carboxymethylcellulose (CMC)) was 64 % of control; the T/C (dose: 40.0 mg/kg/injection, schedule: Q#A X014 (sc), vehicle: olive oil, sesame oil, peanut oil) is 32 % of control. Also, the T/C is 114 % of control (dose: 50.0 mg/kg/injection, schedule: Q#A X014 (oral), vehicle: methylcellulose (MC)); 26 % of control (dose: 50.0 mg/kg/injection, schedule: Q#A X014 (sc), vehicle: olive oil, sesame oil, peanut oil); 106 % of control (dose: 54.0 mg/kg/injection, schedule: Q01DX007 (sc), vehicle: methylcellulose (MC)); 77 % of control (dose: 80.0 mg/kg/injection, schedule: Q01DX007 (sc), vehicle: methylcellulose (MC)); 93 % of control (dose: 100.0 mg/kg/injection, schedule: Q#A X014 (oral), vehicle: methylcellulose (MC)); 71 % of control (dose: 108.0 mg/kg/injection, schedule: Q03DX003 (sc), vehicle: methylcellulose (MC)). For the same molecule, the T/C reads like this: (dose: 120.0 mg/kg/injection, schedule: Q01DX007 (sc), vehicle: methylcellulose (MC)) 101 % of control; (dose: 162.0 mg/kg/injection, schedule: Q03DX003 (sc), vehicle: methylcellulose (MC)) 115 % of control; (dose: 180.0 mg/kg/injection, schedule: Q01DX007 (sc), vehicle: methylcellulose (MC)) 100 % of control; (dose: 200.0 mg/kg/injection, schedule: Q#A X014 (oral), vehicle: methylcellulose (MC)) 95 % of control; (dose: 240.0 mg/kg/injection, schedule: Q03DX003 (sc), vehicle: methylcellulose (MC)) 109 % of control; (dose: 360.0 mg/kg/injection, schedule: Q03DX003 (sc), vehicle: methylcellulose (MC)) 102 % of control. For the same molecule, the T/C (dose: 540.0 mg/kg/injection, schedule: Q03DX003 (sc), vehicle: methylcellulose (MC)) is 152 % of control.
`Nc1nc(SC2CCCCC2)c2[nH]cnc2n1`: the T/C was 89 % of control (dose: 120.0 mg/kg/injection, schedule: Q01DX007 (ip), vehicle: carboxymethylcellulose (CMC)) and 33 % of control (dose: 240.0 mg/kg/injection, schedule: Q01DX007 (ip), vehicle: carboxymethylcellulose (CMC)).
With `CCCCNc1ncnc2c1cnn2C`, the T/C by setting is: (dose: 4.0 mg/kg/injection, schedule: Q01DX007 (ip), vehicle: carboxymethylcellulose (CMC)) 124 % of control; (dose: 8.0 mg/kg/injection, schedule: Q01DX007 (ip), vehicle: carboxymethylcellulose (CMC)) 107 % of control and 121 % of control; (dose: 31.0 mg/kg/injection, schedule: Q01DX007 (ip), vehicle: carboxymethylcellulose (CMC)) 92 % of control; (dose: 32.0 mg/kg/injection, schedule: Q01DX007 (ip), vehicle: carboxymethylcellulose (CMC)) 77 % of control; (dose: 62.0 mg/kg/injection, schedule: Q01DX007 (ip), vehicle: carboxymethylcellulose (CMC)) 112 % of control.
On to `CN(C)c1ccc2c(c1)Cc1cc(N=C3C=CC(=O)O3)ccc1-2`, for which the T/C reads like this: (dose: 48.0 mg/kg/injection, schedule: Q01DX007 (ip), vehicle: other) 83 % of control; (dose: 73.0 mg/kg/injection, schedule: Q01DX007 (ip), vehicle: other) 101 % of control; (dose: 166.0 mg/kg/injection, schedule: Q01DX007 (ip), vehicle: other) 40 % of control and 65 % of control.
On to `CCCCCCC(=O)NC1=C(N2CC2)C(=O)C(NC(=O)CCCCCC)=C(N2CC2)C1=O`, for which the T/C is, setting by setting: (dose: 27.75 mg/kg/injection, schedule: Q#A X014 (ip), vehicle: methylcellulose (MC)) 42 % of control and 50 % of control and 56 % of control; (dose: 41.5 mg/kg/injection, schedule: Q#A X014 (ip), vehicle: methylcellulose (MC)) 38 % of control and 50 % of control and 53 % of control; (dose: 62.5 mg/kg/injection, schedule: Q#A X014 (ip), vehicle: methylcellulose (MC)) 31 % of control.
As for `C[C@@H]1C[C@H]2[C@@H]3CCC4=CC(=O)C=C[C@]4(C)[C@@]3(F)[C@@H](O)C[C@]2(C)[C@@]1(O)C(=O)CO`, the T/C was 50 % of control and 56 % of control (dose: 7.0 mg/kg/injection, schedule: Q01DX007 (sc), vehicle: steriod suspending solution); 38 % of control and 39 % of control (dose: 11.0 mg/kg/injection, schedule: Q01DX007 (sc), vehicle: steriod suspending solution); 35 % of control and 36 % of control and 47 % of control (dose: 16.0 mg/kg/injection, schedule: Q01DX007 (sc), vehicle: steriod suspending solution); 30 % of control and 35 % of control and 40 % of control (dose: 24.0 mg/kg/injection, schedule: Q01DX007 (sc), vehicle: steriod suspending solution).
In the case of `Cn1c(=O)c2[nH]cnc2n(C)c1=O`, the T/C (dose: 20.43 mg/kg/injection, schedule: Q01DX007 (ip), vehicle: carboxymethylcellulose (CMC)) was 75 % of control; the T/C (dose: 40.87 mg/kg/injection, schedule: Q01DX007 (ip), vehicle: carboxymethylcellulose (CMC)) was 103 % of control; the T/C (dose: 81.75 mg/kg/injection, schedule: Q01DX007 (ip), vehicle: carboxymethylcellulose (CMC)) was 70 % of control; the T/C (dose: 163.5 mg/kg/injection, schedule: Q01DX007 (ip), vehicle: carboxymethylcellulose (CMC)) was 113 % of control.
With `NNC(=O)c1ccncc1`, the T/C is 112 % of control (dose: 7.5 mg/kg/injection, schedule: Q#A X014 (ip), vehicle: carboxymethylcellulose (CMC)); 105 % of control (dose: 15.0 mg/kg/injection, schedule: Q#A X014 (ip), vehicle: carboxymethylcellulose (CMC)); 101 % of control under setting [1]; 74 % of control (dose: 60.0 mg/kg/injection, schedule: Q#A X014 (ip), vehicle: carboxymethylcellulose (CMC)).
On to `CC(=O)OCC(=O)[C@@]1(O)CC[C@H]2[C@@H]3CCC4=CC(=O)CC[C@]4(C)[C@H]3[C@@H](O)C[C@@]21C`, for which the T/C was 70 % of control (dose: 12.5 mg/kg/injection, schedule: Q#A X014 (ip), vehicle: steriod suspending solution); 88 % of control (dose: 25.0 mg/kg/injection, schedule: Q#A X014 (ip), vehicle: steriod suspending solution); 57 % of control (dose: 50.0 mg/kg/injection, schedule: Q#A X014 (ip), vehicle: steriod suspending solution).
